# Values of other authors, collected in US9642389B2 (MALAYSIAN PALM OIL BOARD, priority 2009, dated 2017).
# Key:
# Fos = conditions: aged rats, literature [34]
# [1] = tested on: brains of ovariectomized female rats; conditions: literature [33]
# mice = conditions: literature [16-20]
structure (smiles),measurement,setting,value
CC(C)=CCC[C@](C)(O[C@@H]1O[C@H](CO)[C@@H](O)[C@H](O)[C@H]1O)[C@H]1CC[C@]2(C)[C@@H]1[C@H](O)C[C@@H]1[C@@]3(C)CC[C@H](O)C(C)(C)[C@@H]3[C@@H](O[C@@H]3O[C@H](CO)[C@@H](O)[C@H](O)[C@H]3O)C[C@]12C [ginsenoside Rg1],age-related decline of Fos in the hippocampi,Fos,attenuated
O=c1c(O)c(-c2ccc(O)c(O)c2)oc2cc(O)cc(O)c12 [quercetin],rate of protein synthesis in brains,[1],up-regulated
Oc1ccc(C=Cc2cc(O)cc(O)c2)cc1 [resveratrol],performance of mice on rotarods,mice,improve
